In patent US20240342947A1, “A WOOD PRESERVATIVE COMPOSITION COMPRISING 4,5-DICHLORO-2-OCTYLISOTHIAZOL-3(2H)-ONE, A METHOD TREATING A WOOD SUBSTRATE THEREWITH, AND A WOOD PRODUCT PRODUCED THEREFROM” (KOPPERS PERFORMANCE CHEMICALS, INC., priority 2021, published 2024):

Assay: #2 Diesel solvency for DCOI testing
Format: physicochemical
Protocol: Solvency (i.e., ability to dissolve) of #2 diesel for DCOI was measured. Initially, different amounts of DCOI (98.5% purity) was dissolved in #2 diesel in respective vials to make a DCOI concentrate. Thereafter, the vials were stored at ambient temperature (i.e., 21 degrees Celsius+/−2 degrees) or 4 degrees Celsius for up to 7 days. During storage, the vials were monitored for phase separation, precipitation, and turbidity, which may indicate incompatibility between the organic solvent and the DCOI. Whenever a phase separation, precipitation or solution turbidity event happened, the vial was no longer monitored and the DCOI concentration in that solution was considered to be higher than the solvency of the organic solvent.
After two hours of storage at ambient temperature, it was observed that the solvency of #2 diesel for DCOI without any additional polar solvents was no greater than 15% by weight because the DCOI precipitated in the vials containing concentrations of DCOI of greater than 15% by weight. […] Therefore, the maximum solvency of #2 diesel is for DCOI was determined to be 15% by weight.

solvency of #2 diesel for DCOI (after two hours of storage at ambient temperature, without any additional polar solvents): ≤ 15 % by weight
maximum solvency of #2 diesel for DCOI (ambient temperature, no solid DCOI precipitated after 7 days): 15 % by weight
Structure (SMILES): CCCCCCCCn1sc(Cl)c(Cl)c1=O [DCOI, 4,5-dichloro-2-octylisothiazol-3 (2H)-one]
